According to ChEMBL document CHEMBL1201862, “PubChem BioAssay data set” (2004):
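All cell lines were grown in 96-well plates and treated with compound for 48 hours. GI50 = concentration required for 50% inhibition of growth.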 Activity calls are given as the source filed them. Cut-off read from the data, not from the text of the source: active = GI50 up to about 1.1 µM and inactive = higher.

Columns and labels:
Assay in all cases: NCI tumour cell line growth inhibition, 48 h
[1] = tested on: DLD-1
[2] = tested on: OVCAR-3
[3] = tested on: HCT-15
[4] = tested on: SF-295
[5] = tested on: SK-MEL-5
[6] = tested on: COLO 205
[7] = tested on: RXF 631
[8] = tested on: HCC 2998
[9] = tested on: SNB-19
[10] = tested on: NCI-H522
[11] = tested on: SF-268
[12] = tested on: LOX IMVI
[13] = tested on: EKVX
[14] = tested on: UACC-62
[15] = tested on: DMS-273
[16] = tested on: UO-31
[17] = tested on: NCI-H23
[18] = tested on: K562
[19] = tested on: HOP-92
[20] = tested on: U-251
[21] = tested on: OVCAR-4
[22] = tested on: SNB-75
[23] = tested on: OVCAR-8
[24] = tested on: A498
[25] = tested on: SF-539
[26] = tested on: HOP-18
[27] = tested on: NCI-H226
[28] = tested on: SK-OV-3
[29] = tested on: ACHN
[30] = tested on: UACC-257
[31] = tested on: A549
[32] = tested on: Malme-3M
[33] = tested on: M19-MEL
[34] = tested on: KM-20L2
[35] = tested on: SK-MEL-2
[36] = tested on: CCRF-CEM
[37] = tested on: OVCAR-5
[38] = tested on: CAKI-1
[39] = tested on: 786-0
[40] = tested on: TK-10
[41] = tested on: MOLT-4
[42] = tested on: HCT-116
[43] = tested on: SN12C
[44] = tested on: IGROV-1
[45] = tested on: HL-60
[46] = tested on: SK-MEL-28
[47] = tested on: DMS-114
[48] = tested on: SNB-78
[49] = tested on: LXFL 529
[50] = tested on: HOP-62
[51] = tested on: HT-29
[52] = tested on: SW-620
[53] = tested on: M14
[54] = tested on: RPMI-8226
[55] = tested on: SR
[56] = tested on: XF498
[57] = tested on: NCI-H460
[58] = tested on: KM12

NNC(=O)N/N=C1/C(=O)N(c2ccc(Cl)c(Cl)c2)C(=O)C(=O)C1c1nc2ccccc2o1 (configuration not stated)
GI50 [1]: > 100 µM (inactive)
GI50 [2]: > 100 µM (inactive)
GI50 [3]: > 100 µM
GI50 [4]: > 100 µM (inactive)
GI50 [5]: > 100 µM (inactive)
GI50 [6]: > 100 µM (inactive)
GI50 [7]: 76.4 µM (inactive)
GI50 [8]: > 100 µM (inactive)
GI50 [9]: 29.5 µM (inactive)
GI50 [10]: 62.4 µM (inactive)
GI50 [11]: > 100 µM (inactive)
GI50 [12]: > 100 µM (inactive)
GI50 [13]: 45.3 µM (inactive)
GI50 [14]: 67.1 µM (inactive)
GI50 [15]: > 100 µM (inactive)
GI50 [16]: > 100 µM (inactive)
GI50 [17]: > 100 µM (inactive)
GI50 [18]: > 100 µM (inactive)
GI50 [19]: > 100 µM (inactive)
GI50 [20]: > 100 µM (inactive)
GI50 [21]: > 100 µM (inactive)
GI50 [22]: > 100 µM (inactive)
GI50 [23]: > 100 µM (inactive)
GI50 [24]: > 100 µM (inactive)
GI50 [25]: > 100 µM (inactive)
GI50 [26]: > 100 µM (inactive)
GI50 [27]: > 100 µM (inactive)
GI50 [28]: > 100 µM (inactive)
GI50 [29]: > 100 µM (inactive)
GI50 [30]: > 100 µM (inactive)
GI50 [31]: > 100 µM (inactive)
GI50 [32]: > 100 µM (inactive)
GI50 [33]: > 100 µM (inactive)
GI50 [34]: > 100 µM (inactive)
GI50 [35]: > 100 µM (inactive)
GI50 [36]: > 100 µM (inactive)
GI50 [37]: > 100 µM (inactive)
GI50 [38]: > 100 µM (inactive)
GI50 [39]: > 100 µM (inactive)
GI50 [40]: > 100 µM (inactive)
GI50 [41]: 78.9 µM (inactive)
GI50 [42]: > 100 µM (inactive)
GI50 [43]: > 100 µM (inactive)
GI50 [44]: > 100 µM (inactive)
GI50 [45]: 42.9 µM (inactive)
GI50 [46]: > 100 µM (inactive)
GI50 [47]: > 100 µM (inactive)
GI50 [48]: > 100 µM (inactive)
GI50 [49]: > 100 µM (inactive)
GI50 [50]: > 100 µM (inactive)
GI50 [51]: > 100 µM (inactive)
GI50 [52]: > 100 µM (inactive)
GI50 [53]: > 100 µM (inactive)

COc1cc(C)c2c(c1C)OC(=O)c1c(C)c(Cl)c(O)c(C=O)c1O2
GI50 [54]: 14 µM (inactive)
GI50 [1]: 11.6 µM (inactive)
GI50 [2]: 1.63 µM (inactive)
GI50 [4]: > 10 µM (inactive)
GI50 [5]: 60.1 µM (inactive)
GI50 [6]: 29.2 µM (inactive)
GI50 [7]: 15.5 µM (inactive)
GI50 [8]: 19.5 µM (inactive)
GI50 [9]: 19.1 µM (inactive)
GI50 [55]: 14.3 µM (inactive)
GI50 [11]: 9.66 µM (inactive)
GI50 [12]: 16 µM (inactive)
GI50 [13]: 10.3 µM (inactive)
GI50 [14]: 15.7 µM (inactive)
GI50 [15]: 14.9 µM (inactive)
GI50 [16]: 11.2 µM (inactive)
GI50 [17]: 14.7 µM (inactive)
GI50 [18]: 18.5 µM (inactive)
GI50 [20]: 6.41 µM (inactive)
GI50 [22]: 14.3 µM (inactive)
GI50 [23]: 10.2 µM (inactive)
GI50 [24]: 13.9 µM (inactive)
GI50 [25]: 12.2 µM (inactive)
GI50 [27]: 23.2 µM (inactive)
GI50 [28]: 23.4 µM (inactive)
GI50 [29]: 14.7 µM (inactive)
GI50 [30]: 20 µM (inactive)
GI50 [31]: 12.8 µM (inactive)
GI50 [32]: 15.5 µM (inactive)
GI50 [56]: 12.3 µM (inactive)
GI50 [34]: 22.6 µM (inactive)
GI50 [57]: 17.4 µM (inactive)
GI50 [36]: 9.18 µM (inactive)
GI50 [37]: 27.7 µM (inactive)
GI50 [38]: 52.2 µM (inactive)
GI50 [39]: 10.4 µM (inactive)
GI50 [40]: 29 µM (inactive)
GI50 [41]: 9.79 µM (inactive)
GI50 [42]: 20.8 µM (inactive)
GI50 [58]: 15.4 µM (inactive)
GI50 [43]: 21.8 µM (inactive)
GI50 [44]: 24.2 µM (inactive)
GI50 [45]: 9.02 µM (inactive)
GI50 [48]: 13.2 µM (inactive)
GI50 [49]: 13.9 µM (inactive)
GI50 [50]: 20.3 µM (inactive)
GI50 [51]: 20.4 µM (inactive)
GI50 [52]: 31.8 µM (inactive)
GI50 [53]: 18.4 µM (inactive)
